Measurements from BindingDB's records for doi:10.7270/Q2DN43N5 (Burnham Center For Chemical Genomics, 2013).
Where a name gives a salt, the structure may show the parent alone.

Each molecule was assayed against T1, Tyrosine-protein phosphatase non-receptor type 22 (Homo sapiens, UniProt Q9Y2R2).
T1 sequence (Q9Y2R2 whole entry): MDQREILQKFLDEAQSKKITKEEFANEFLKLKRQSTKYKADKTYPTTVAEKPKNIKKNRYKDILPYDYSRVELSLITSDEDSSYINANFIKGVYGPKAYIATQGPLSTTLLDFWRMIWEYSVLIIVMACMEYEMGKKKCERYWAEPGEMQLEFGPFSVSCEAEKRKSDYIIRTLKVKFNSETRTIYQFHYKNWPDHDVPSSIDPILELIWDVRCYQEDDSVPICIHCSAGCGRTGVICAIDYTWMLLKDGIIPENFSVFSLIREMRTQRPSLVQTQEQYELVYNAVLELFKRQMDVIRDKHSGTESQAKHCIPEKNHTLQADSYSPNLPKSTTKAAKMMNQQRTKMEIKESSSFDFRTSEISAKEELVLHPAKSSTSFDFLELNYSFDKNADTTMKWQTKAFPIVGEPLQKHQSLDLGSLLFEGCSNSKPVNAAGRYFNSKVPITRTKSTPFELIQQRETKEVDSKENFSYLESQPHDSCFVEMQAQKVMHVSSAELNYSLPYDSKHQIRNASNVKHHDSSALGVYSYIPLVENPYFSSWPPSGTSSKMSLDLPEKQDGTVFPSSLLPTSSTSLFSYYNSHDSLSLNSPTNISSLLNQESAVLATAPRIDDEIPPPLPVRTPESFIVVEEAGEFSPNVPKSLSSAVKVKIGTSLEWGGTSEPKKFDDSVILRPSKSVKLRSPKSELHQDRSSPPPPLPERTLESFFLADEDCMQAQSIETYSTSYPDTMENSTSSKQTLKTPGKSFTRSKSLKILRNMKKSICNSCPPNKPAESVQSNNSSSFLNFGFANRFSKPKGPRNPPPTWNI
CCc1nc(N)nc(N)c1-c1ccc(Cl)cc1 showed an IC50 greater than 80 µM. Work on c1ccc(-c2nc(NCc3cccnc3)c3ccccc3n2)cc1 yielded an IC50 greater than 80 µM. CCc1nc(N)nc(N)c1-c1ccc(NCCN)c([N+](=O)[O-])c1 showed an IC50 greater than 80 µM. CN(C)c1nc(N)nc(/C(C#N)=C/C2CC3C=CC2C3)n1 (configuration not stated) gave an IC50 greater than 80 µM. Work on Cc1ccccc1Nc1cc(C)c2c(=O)cccc-2[nH]1 yielded an IC50 greater than 80 µM. Cc1nccc(O)c1Cc1c(Cl)cccc1Cl gave an IC50 greater than 80 µM. Work on Cc1cccc(-c2nc(NCCCN3CCOCC3)c3ccccc3n2)c1 yielded an IC50 greater than 80 µM. Work on Fc1ccccc1-c1nc(NCCCN2CCOCC2)c2ccccc2n1 [2-(2-fluorophenyl)-N-(3-morpholin-4-ylpropyl)quinazolin-4-amine] yielded an IC50 greater than 80 µM. COc1ccc(/N=c2\[nH]c(=O)c3cc([N+](=O)[O-])ccc3s2)cc1 [2-(4-methoxyanilino)-6-nitro-1,3-benzothiazin-4-one] was tested, and the IC50 was greater than 80 µM. In the case of COc1ccccc1CNc1nc(NCc2cnc(C)cn2)c2sccc2n1 [2-N-[(2-methoxyphenyl)methyl]-4-N-[(5-methylpyrazin-2-yl)methyl]thieno[3,2-d]pyrimidine-2,4-diamine], the IC50 is reported as greater than 80 µM. CCOc1cc(CN=Nc2nc(O)c(CC(=O)O)s2)ccc1OCc1ccc(Cl)cc1Cl [2-[2-[(N''E)-N''-[4-(2,4-dichlorobenzyl)oxy-3-ethoxy-benzylidene]hydrazino]-4-keto-2-thiazolin-5-yl]acetic acid] gave an IC50 of 22.9 µM. Molecule O=C(OCCNc1nc(-c2ccccc2)nc2ccccc12)c1ccncc1 [2-[(2-phenylquinazolin-4-yl)amino]ethyl pyridine-4-carboxylate] has an IC50 greater than 80 µM. Cc1ccc(-c2nc(NC(=O)CSc3cc(C)c4ccccc4n3)ns2)cc1 [2-[(4-methyl-2-quinolyl)thio]-N-[5-(p-tolyl)-1,2,4-thiadiazol-3-yl]acetamide] was tested, and the IC50 was greater than 80 µM. Molecule N=c1c(C(=O)NCc2ccc3c(c2)OCO3)cc2c(=O)n3ccccc3nc2n1Cc1cccnc1 [2-azanylidene-N-(1,3-benzodioxol-5-ylmethyl)-5-oxidanylidene-1-(pyridin-3-ylmethyl)dipyrido[1,2-d:3',4'-f]pyrimidine-3-carboxamide] has an IC50 greater than 80 µM. With c1ccc(-c2cc(N3CCCCC3)c3ccccc3n2)cc1 [2-phenyl-4-piperidin-1-ylquinoline] the IC50 was greater than 80 µM. CC(C)OCCCNc1nc(-c2ccccc2)nc2ccccc12 [2-phenyl-N-(3-propan-2-yloxypropyl)-4-quinazolinamine;hydrochloride] gave an IC50 greater than 80 µM. Cc1c(CCC(=O)O)c(=O)oc2c(C)c(OCc3ccccc3Cl)ccc12 [3-[7-[(2-chlorophenyl)methoxy]-4,8-dimethyl-2-oxochromen-3-yl]propanoic acid] gave an IC50 greater than 80 µM. CCN(c1ccccc1)S(=O)(=O)c1cc(C(=O)O)ccc1C [3-[ethyl(phenyl)sulfamoyl]-4-methyl-benzoic acid] was tested, and the IC50 was greater than 80 µM. For O=C(OCCNc1nc(-c2ccccc2)nc2ccccc12)c1cccnc1 [3-pyridinecarboxylic acid 2-[(2-phenyl-4-quinazolinyl)amino]ethyl ester], the IC50 was greater than 80 µM. CNc1nc(NC)c2c[nH]nc2n1 [4-N,6-N-dimethyl-1H-pyrazolo[3,4-d]pyrimidine-4,6-diamine] was tested, and the IC50 was greater than 80 µM. Work on COCCNc1nc(NCc2cccc(OC)c2OC)c2sccc2n1 [4-N-[(2,3-dimethoxyphenyl)methyl]-2-N-(2-methoxyethyl)thieno[3,2-d]pyrimidine-2,4-diamine] yielded an IC50 greater than 80 µM. Cc1cc(N2CCC(C)CC2)[nH]c2cccc(=O)c1-2 [4-methyl-2-(4-methyl-1-piperidinyl)-1H-quinolin-5-one] gave an IC50 greater than 80 µM. In the case of CCc1nc(N)nc(N)c1-c1ccc(Cl)c(N=[N+]=[N-])c1 [5-(3-azido-4-chlorophenyl)-6-ethylpyrimidine-2,4-diamine;ethanesulfonic acid], the IC50 is reported as greater than 80 µM. Molecule Cc1nc(N)nc(N)c1-c1ccc([N+](=O)[O-])cc1 [6-methyl-5-(4-nitrophenyl)pyrimidine-2,4-diamine] has an IC50 greater than 80 µM. Cc1cccc2nc(-c3ccccc3)nc(N[C@@H](CO)c3ccccc3)c12 [(2R)-2-[(5-methyl-2-phenylquinazolin-4-yl)amino]-2-phenylethanol] gave an IC50 greater than 80 µM. Work on Nc1nc(N)c(Cc2ccc(Cl)cc2Cl)c(N)n1 [MLS000691890] yielded an IC50 greater than 80 µM. c1ccc(-c2nc(NCCCn3ccnc3)c3ccccc3n2)cc1 [MLS001007021] gave an IC50 greater than 80 µM. O=c1cc(-c2cc3ccccc3o2)c2cc(O)ccc2o1 [MLS001167639] was tested, and the IC50 was greater than 80 µM. With CCCCC(=O)Nc1ccc(C(=O)NNC(=O)c2ccc(C)c(Br)c2)cc1 [N-(4-{[2-(3-bromo-4-methylbenzoyl)hydrazino]carbonyl}phenyl)pentanamide] the IC50 was greater than 80 µM. O=C(CCCOc1ccc(Cl)cc1Cl)NNC(=O)c1ccc(NC(=O)c2ccccc2)cc1 [N-[4-[[4-[2,4-bis(chloranyl)phenoxy]butanoylamino]carbamoyl]phenyl]benzamide] was tested, and the IC50 was greater than 80 µM. For Fc1ccccc1-c1nc(NC2CCCC2)c2ccccc2n1 [N-cyclopentyl-2-(2-fluorophenyl)quinazolin-4-amine], the IC50 was greater than 80 µM. Cc1ccc(-c2nc(NCc3cccnc3)c3ccccc3n2)cc1 [Pyridin-3-ylmethyl-(2-p-tolyl-quinazolin-4-yl)-amine] gave an IC50 greater than 80 µM. For Clc1cccc(Cl)c1Cn1cnc(NCc2ccco2)c2ncnc1-2 [SMR000036870], the IC50 was greater than 80 µM. c1ccc(-c2nc(NCCCN3CCOCC3)c3ccccc3n2)cc1 [SMR000071192] gave an IC50 greater than 80 µM. Work on Cc1ccc(-c2nc(NCCN3CCOCC3)c3ccccc3n2)cc1 [SMR000108805] yielded an IC50 greater than 80 µM. CC(C)Oc1ccc(-c2nc(NCC3CCCO3)c3ccccc3n2)cc1 (configuration not stated) [SMR000433802] was tested, and the IC50 was greater than 80 µM. Molecule c1ccc(-c2cc(NCCN3CCCCC3)c3ccccc3n2)cc1 [SMR000567889] has an IC50 greater than 80 µM.
